The numbers were not newly measured in patent US20200061053A1, “PHARMACEUTICAL COMPOSITION AND METHOD FOR ACUTE ON CHRONIC LIVER FAILURE AND RELATED LIVER DISEASES” (priority 2018, published 2020), which cites them from elsewhere.

Molecules are shown by their SMILES.

For series [1], the system named is liver failure patients.
Series [2] relates to liver. Particulars: in vivo.
Where [3] appears, read: laboratory test indicators, liver failure patients, TMZ 20 mg three times a day.

In the case of `COc1ccc(CN2CCNCC2)c(OC)c1OC.Cl.Cl` [TMZ, 1-[2,3,4-trimethoxybenzyl] piperazine dihydrochloride], the “30-day immortality rate of liver failure patients” value in series [1] (TMZ tablets 20 mg orally, three times a day, 4-week course, hospitalized liver failure patients, traditional therapeutic approach 44%) is reported as “approximately 18%”. In addition, the “90-day immortality rate of liver failure patients” value in series [1] (TMZ tablets 20 mg orally, three times a day, 4-week course, hospitalized liver failure patients, traditional therapeutic approach 68%) is given as 35%. Further, in series [1] (setting [3]), the “decrease rate of alanine aminotransferase” value is listed as “significantly raise the decrease rate” and the “decrease rate of aspartate transaminase” value was “significantly raise the decrease rate”. Also, the “maintaining liver functions and decreasing transaminase levels (alanine aminotransferase, aspartate transaminase)” value in series [1] (patients suffering from liver diseases and conditions, clinical research and trial results) is “significant effects in maintaining liver functions and decreasing transaminase levels”. The liver toxicity entry in series [2] is reported as “minimal liver toxicity”.
